Earlier results as cited in patent publication US20040208936A1, “Novel compositions” (priority 2002, published 2004).
≈ marks a conversion by molar mass, not a printed value.

Test system: S pneumoniae
Conditions: some 10% of pneumococci

MIC: 2 µg/mL (≈ 5.47 µM)
Compound: CC1(C)S[C@@H]2[C@H](NC(=O)[C@H](N)c3ccc(O)cc3)C(=O)N2[C@H]1C(=O)O [Amoxicillin]
